The results in this text go back to BindingDB's records for doi:10.1021/jm800052b (Genentech, 2008).

Structures are written as SMILES.

For one test, the target named is Aurora kinase B (Homo sapiens, UniProt Q96GD4). The test is described as follows: Enzyme Inhibition Assay. The following applies: pH 7.5; 22 °C. On the procedure: (§1) Aurora kinase was assayed in ELISA format using a GST fusion of the N-terminus of Histone H3 as substrate. Plates were coated with substrate, and then blocked with I-block (Tropix) in PBS. After kinase reaction, product was detected by incubation with antiphosphohistone H3 (Ser10) 6G3 mouse monoclonal antibody and sheep-antimouse HRP conjugate, followed by washing and addition of TMB substrate.
Sequence of Aurora kinase B (Q96GD4 whole entry, the tested form may be a part): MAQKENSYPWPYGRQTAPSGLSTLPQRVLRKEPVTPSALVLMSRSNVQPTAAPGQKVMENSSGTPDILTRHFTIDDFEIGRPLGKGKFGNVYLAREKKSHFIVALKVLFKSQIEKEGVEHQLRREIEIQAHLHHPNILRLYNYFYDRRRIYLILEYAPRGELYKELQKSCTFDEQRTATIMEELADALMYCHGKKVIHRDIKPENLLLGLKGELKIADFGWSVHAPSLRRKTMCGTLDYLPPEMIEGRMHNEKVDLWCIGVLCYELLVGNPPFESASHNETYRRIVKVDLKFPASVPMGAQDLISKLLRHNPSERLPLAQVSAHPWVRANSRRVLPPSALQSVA

The target in a further test is T1, Aurora kinase A (Homo sapiens, UniProt O14965).
T1 sequence (O14965 whole entry): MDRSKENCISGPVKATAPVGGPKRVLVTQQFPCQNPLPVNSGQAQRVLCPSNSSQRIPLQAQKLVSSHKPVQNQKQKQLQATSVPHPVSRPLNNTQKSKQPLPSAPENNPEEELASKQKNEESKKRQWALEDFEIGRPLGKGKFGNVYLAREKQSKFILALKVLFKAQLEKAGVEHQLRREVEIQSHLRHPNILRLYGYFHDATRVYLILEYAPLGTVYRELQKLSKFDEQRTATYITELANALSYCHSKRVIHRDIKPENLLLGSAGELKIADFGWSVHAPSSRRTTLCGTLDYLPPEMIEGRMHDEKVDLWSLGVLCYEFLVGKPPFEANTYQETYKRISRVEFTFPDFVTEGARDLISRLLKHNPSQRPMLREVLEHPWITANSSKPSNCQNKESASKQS
Description: Enzyme Inhibition Assay. The following applies: pH 7.5; 22 °C. On the procedure: as §1

What is called IC50 is the concentration needed to halve the response being measured. Regarding `Cc1[nH]nc2c1CCCc1c-2[nH]c2ccccc12` [5-methyl-3,4,17-triazatetracyclo[8.7.0.0^{2,6}.0^{11,16}]heptadeca-1(10),2,5,11,13,15-hexaene], the IC50 at Aurora kinase B worked out at 22 nM; against Aurora kinase A, 42 nM.
Take `Cc1[nH]nc2c1CCCc1c-2[nH]c2cc3c(cc12)NC(=O)C3(C)C` [7,7,16-trimethyl-5,11,14,15-tetraazapentacyclo[10.8.0.0^{2,10}.0^{4,8}.0^{13,17}]icosa-1(12),2,4(8),9,13,16-hexaen-6-one]: the IC50 on Aurora kinase B was under 2 nM.
